Measured values as given in ChEMBL document CHEMBL1649133, “In vitro comparison of the efficacies of natamycin and silver nitrate against ocular fungi” (2009).
Converted amounts (≈) assume the structure as drawn.

Experiments:
Type in all cases: functional
[1] = tested on: Fusarium poae; experiment: Antifungal activity against 0.4x10'4 to 5x10^4 CFU/ml Fusarium poae after 48 hrs by CLSI M38-A broth microdilution method
[2] = tested on: Fusarium avenaceum; experiment: Antifungal activity against 0.4x10'4 to 5x10^4 CFU/ml Fusarium avenaceum after 48 hrs by CLSI M38-A broth microdilution method
[3] = tested on: Aspergillus versicolor; experiment: Antifungal activity against 0.4x10'4 to 5x10^4 CFU/ml Aspergillus versicolor after 48 hrs by CLSI M38-A broth microdilution method
[4] = tested on: Fusarium oxysporum; experiment: Antifungal activity against 0.4x10'4 to 5x10^4 CFU/ml Fusarium oxysporum after 48 hrs by CLSI M38-A broth microdilution method
[5] = tested on: Fusarium verticillioides; experiment: Antifungal activity against 0.4x10'4 to 5x10^4 CFU/ml Fusarium moniliforme after 48 hrs by CLSI M38-A broth microdilution method
[6] = tested on: Aspergillus niger; experiment: Antifungal activity against 0.4x10'4 to 5x10^4 CFU/ml Aspergillus niger after 48 hrs by CLSI M38-A broth microdilution method
[7] = tested on: Aspergillus fumigatus; experiment: Antifungal activity against 0.4x10'4 to 5x10^4 CFU/ml Aspergillus fumigatus after 48 hrs by CLSI M38-A broth microdilution method
[8] = tested on: Aspergillus flavus; experiment: Antifungal activity against 0.4x10'4 to 5x10^4 CFU/ml Aspergillus flavus after 48 hrs by CLSI M38-A broth microdilution method
[9] = tested on: Fusarium solani; experiment: Antifungal activity against 0.4x10'4 to 5x10^4 CFU/ml Fusarium solani after 48 hrs by CLSI M38-A broth microdilution method
[10] = tested on: Aspergillus oryzae; experiment: Antifungal activity against 0.4x10'4 to 5x10^4 CFU/ml Aspergillus oryzae after 48 hrs by CLSI M38-A broth microdilution method
[11] = tested on: Aspergillus sp.; experiment: Antifungal activity against 0.4x10'4 to 5x10^4 CFU/ml Aspergillus sp. after 48 hrs by CLSI M38-A broth microdilution method
[12] = tested on: Fusarium sp.; experiment: Antifungal activity against 0.4x10'4 to 5x10^4 CFU/ml Fusarium sp. after 48 hrs by CLSI M38-A broth microdilution method

In the case of `C[C@@H]1C/C=C/C=C/C=C/C=C/[C@H](O[C@@H]2O[C@H](C)[C@@H](O)[C@H](N)[C@@H]2O)C[C@@H]2O[C@](O)(C[C@@H](O)C[C@H]3O[C@@H]3/C=C/C(=O)O1)C[C@H](O)[C@H]2C(=O)O` [NATAMYCIN], the MIC [1] is reported as 4 µg/mL (≈ 6.01 µM), the MIC50 [2] is reported as 8 µg/mL (≈ 12 µM) and the MIC90 [2] is reported as 8 µg/mL (≈ 12 µM). For the same compound, the MIC50 [3] was 8 µg/mL (≈ 12 µM), the MIC90 [3] was 32 µg/mL (≈ 48.1 µM) and the MIC [4] was 4 µg/mL (≈ 6.01 µM). For the same compound, the MIC [5] was 4 µg/mL (≈ 6.01 µM), the MIC50 [5] was 4 µg/mL (≈ 6.01 µM) and the MIC90 [5] was 8 µg/mL (≈ 12 µM). For the same compound, the MIC [6] was 0.25 µg/mL (≈ 0.376 µM), the MIC [7] was 4 µg/mL (≈ 6.01 µM) and the MIC50 [7] was 4 µg/mL (≈ 6.01 µM). For the same compound, the MIC90 [7] was 4 µg/mL (≈ 6.01 µM), the MIC50 [8] was 32 µg/mL (≈ 48.1 µM) and the MIC90 [8] was 32 µg/mL (≈ 48.1 µM). It also gave an MIC [9] of 4 µg/mL (≈ 6.01 µM), an MIC50 [9] of 4 µg/mL (≈ 6.01 µM) and an MIC90 [9] of 8 µg/mL (≈ 12 µM). For the same compound, the MIC50 [10] was 32 µg/mL (≈ 48.1 µM), the MIC90 [10] was 32 µg/mL (≈ 48.1 µM) and the MIC50 [11] was 32 µg/mL (≈ 48.1 µM). The MIC90 [11] was 32 µg/mL (≈ 48.1 µM), the MIC [12] was 4 µg/mL (≈ 6.01 µM) and the MIC50 [12] was 4 µg/mL (≈ 6.01 µM). The MIC90 [12] was 8 µg/mL (≈ 12 µM).
